In US20160377605A1, “LYSOSOMAL ATP SELECTIVE TWO-PHOTON ABSORBING FLUORESCENT PROBE” (POSTECH ACADEMY-INDUSTRY FOUNDATION, priority 2015, published 2016):

Key:
[1] = system: lysosomal ATP in rat brain tissue; experiment: Two-photon microscopic imaging of rat brain tissue treated with fluorescent probe; details: rat brain tissue slice, 30 μM, 20 minutes, 780 nm two-photon excitation
Experimental: The present inventors treated a rat brain tissue with Compound 4 (R1═R2═H), which is the fluorescent probe according to embodiments of the present invention and observed the changes in fluorescence through two-photon fluorescence microscopy, and the results are provided in FIG. 8. The scale bar in FIG. 8 is 80 μm.
Specifically, to obtain a two-photon fluorescence microscopic image of a rat tissue treated with Compound 4, an experiment was carried out under a condition of isolated from light (in a dark room) using a […] rat (5 weeks old, male, Samtako Inc.). The brain of the rat was dissected and washed with a PBS buffer solution, and then the individual organs were frozen with dry ice for 5 minutes. The frozen organs were broken with a hammer, and 50 μm-thick tissue slice samples were prepared using a cryostat machine (CM3000, Leica). […] The fluorescence was observed through two-photon fluorescence microscopy. The two-photon fluorescence microscope was configured with a 20× objective lens (HCX APO L 20×/1.00 W, Leica, Germany), and the observation was carried out using a Ti: Sapphire laser (Chameleon Ultra II, Coherent) with 6 mW laser output and at a 780 nm two-photon excitation wavelength.

[2] = Absorption characteristic of fluorescent probe with and without ATP; format: physicochemical; details: 10 μM, pH 5.5 PBS (0.1% acetonitrile)
Experimental: Specifically, to observe the absorption characteristic of the fluorescent probe, the present inventors measured an absorbance spectrum by filling, with a pH 5.5 PBS solution (with 0.1% acetonitrile) comprising 10 μM Compound 4, a quartz fluorescence cell (114F-QS, Hellma Analytics) with a 1 cm light path, and a graph of the absorbance (y-axis) with respect to the wavelength (x-axis) is shown in FIG. 1A. In addition, another absorbance spectrum was measured by filling a quartz fluorescence cell (114F-QS, Hellma Analytics) with a 1 cm light path with a pH 5.5 PBS solution (with 0.1% acetonitrile) comprising 10 μM Compound 4 and 1 mM ATP, and a graph of the absorbance (y-axis) with respect to the wavelength (x-axis) is shown in FIG. 1B. […] On the other hand, in FIG. 1B in which ATP was detected, a new absorption was observed near 540 nm in addition to 400 nm. The absorbance spectra were obtained using the HP 8453 UV/Vis spectrophotometer.

[3] = system: lysosomal ATP in HeLa cells; experiment: Lysosomal selectivity: colocalization with LysoTracker by one-photon and two-photon fluorescence microscopy; format: cell-based, human
Experimental: The present inventors treated HeLa cells with Compound 4 (R1═R2═H), which is a fluorescent probe, examined a fluorescence emission phenomenon through two-photon fluorescence microscopy, and assessed lysosomal selectivity by treating the cells also with LysoTracker (Life Technologies Corp.), which is a lysosome marker widely used to assess lysosomal selectivity, and then performing one-photon and two-photon fluorescence microscopy. The scale bar in FIG. 6 is 25 μm.
Each cell was cultured in Minimum Essential Medium with Earle's Balanced Salts (MEM/EBSS) of Hyclone™ GE Healthcare Life Sciences and a Dulbecco's modified Eagle's medium (DMEM), and the culture was carried out at 37° C. […] The cells prepared as thus were observed through two-photon fluorescence microscopy to obtain fluorescence images, and the two-photon fluorescence microscopic images were obtained at a 780 nm excitation wavelength and through a laser power of 4 mW respectively in the blue channel (440-490 nm), yellow channel (550-600 nm), and red channel (650-700 nm). […]
The experiment was repeated with LysoTracker Deep Red (Life Technologies Corp.). HeLa cells were treated with LysoTracker, and then a fluorescence image thereof was obtained with a one-photon fluorescence microscope (TCS SP5 II, Leica, Germany). […]

[4] = Fluorescence ATP detection characteristic, ratiometric, in PBS solution
Experimental: Specifically, to observe the ATP detection characteristic of Compound 4, the present inventors measured a fluorescence spectrum (the fluorescence spectrum was obtained using a Photon Technical International Fluorescence System) by filling a quartz fluorescence cell (114F-QS, Hellma Analytics) with a 1 cm light path with a pH 5.5 PBS solution (with 0.1% acetonitrile) comprising 10 μM Compound 4 and ATP (0.0-1.0 mM), and graphs of the normalized fluorescence intensity (y-axis) with respect to the wavelength (x-axis) are shown in FIG. 2A. […] In addition, to assess the feasibility of quantification by a ratiometric detection system, the correlation between the ATP concentration (x-axis) and the fluorescence ratio (the ratio between two types of fluorescence) (y-axis) was provided in FIG. 2B. As appears in FIG. 2B, the proportional relationship between the ATP concentration and the ratio between two types of fluorescence proves the feasibility of quantification by a ratiometric detection system.
In order to assess the correlation between the ATP detection by Compound 4 and the pH of the solution, the present inventors measured a fluorescence spectrum (the fluorescence spectrum was obtained using a Photon Technical International Fluorescence System) by filling a quartz fluorescence cell (114F-QS, Hellma Analytics) with a 1 cm light path with a PBS solution (with 0.1% acetonitrile) with a pH range of 4.0 to 8.0 comprising 10 μM Compound 4 and ATP (0.0-1.0 mM), and graphs of the fluorescence ratio (y-axis) with respect to the pH (x-axis) are shown in FIG. 3A. According to FIG. 3A, the detectability changed with pH. It was observed that ATP was detected only under acidic conditions (pH 4.8-5.8) of lysosomes, which are the only organelles maintaining acidic conditions in cells, and was not detected at near-neutral pH (pH 7.0-7.5), which corresponds to the pH of most cells. In addition, the fluorescence ratio (y-axis) that changes with respect to the ATP concentration (x-axis) is provided for the pH range of 4.5 to 5.5 in FIG. 3B.

[5] = Selectivity of ATP detection among various cations and anions (fluorescence ratio); details: 10 μM, pH 5.5 PBS, analytes at 1 mM
Experimental: In order to examine the selectivity of Compound 4 in ATP detection, the present inventors measured a fluorescence spectrum (the fluorescence spectrum was obtained using a Photon Technical International Fluorescence System) by filling a quartz fluorescence cell (114F-QS, Hellma Analytics) with a 1 cm light path with a pH 5.5 PBS solution (with 0.1% acetonitrile) comprising Compound 4 at 10 μM and various cations and anions (ATP, ADP, AMP, cytidine triphosphate (CTP), uridine triphosphate (UTP), guanosine triphosphate (GTP), thymine triphosphate (TTP), […] (PPi), phosphoric acid (H3PO4), nitrate anions (NO3^−), phosphate anions (PO4^3−), dithionite ion (S2O4^2−), sulfate ion (SO4^2−), acetate ion, nitrite ion (NO2^−), perchlorate ions (ClO4^−), citrate ions, monohydrogen phosphate ions (HPO4^2−), cyanide ions (CN^−), nickel ions (Ni^+), silver ions (Ag^+), manganese ions (Mn^2+), palladium ions (Pd^2+), cadmium ions (Cd^2+), cobalt ions (Co^3+), iron ions (Fe^+), zinc ion (Zn^2+), copper ion (Cu^2+), potassium ion (K^+), magnesium ion (Mg^2+), calcium ions (Ca^2+), sodium ions (Na^+), lead ions (Pb^2+), and chromium ions (Cr^3+)) at 1 mM, and the fluorescence ratios (y-axis) for various analytes (x-axis) were provided in FIG. 4.

HeLa cells = experiment: MTT assay cytotoxicity / cell viability; format: cell-based
Experimental: The present inventors examine the cytotoxicity of Compound 4 (R1═R2═H), which is the fluorescent probe according to embodiments of the present invention, by treating HeLa cells (human uterine cancer cells) with the compound, and the results are provided in FIG. 5.
To examine the cytotoxicity of Compound 4, an MTT assay was conducted on the HeLa cells and the cell viability was assessed.
Specifically, the cells (100 μL/well) were prepared in a 96-well plate at the density of about 5×10^3 cells per well. The cells were treated with Compound 4 at the concentration of 10, 30, 50, or 100 μM, cultured for 1 hour, and then washed with a PBS buffer solution. 25 μL of a 5 mg/mL 3-(4,5-[…])-2,5-diphenyltetrazolium bromide (MTT) solution was put in each well. After culturing for 2 hours at 37° C., the medium was removed, formazan crystals were dissolved in dimethyl sulfoxide (DMSO), and the absorbance was measured using a plate reader. According to FIG. 5, Compound 4 was confirmed to have low cytotoxicity up to the concentration of 10 μM within 24 hours (about 8% of the cells died). In addition, even when the concentration of Compound 4 was increased to 100 μM, it was confirmed that cytotoxicity within 8 hours was low (about 20% of the cells died), which indicated the possibility of conducting experiments in the corresponding range.

In the case of `CCNc1cc2c(cc1C)C1(c3cc(C)c(NCC)cc3O2)c2ccccc2C(=O)N1CCNCCNCCNC1=C2C=CC=[N+]2[B-](F)(F)n2cccc21` [Compound 4, 10-((2-((2-((2-(3′,6′-bis(ethylamino)-2′,7′-dimethyl-3-oxospiro[isoindoline-1,9′-xanthen]-2-yl)ethyl)amino)ethyl)amino)ethyl)amino)-5,5-difluoro-5H-dipyrrolo[1,2-c:2′,1′-f][1,3,2]diazaborinin-4-ium-5-uide], the “detection of lysosomal ATP in deep tissue” value [1] is reported as “selectively detected lysosomal ATP”, the “new absorption wavelength when ATP was detected” value ([2]; 1 mM ATP, in addition to 400 nm) is reported as roughly 540 nm and the “single absorption wavelength of the fluorescent probe” value ([2]; no ATP) is reported as roughly 400 nm. For the same compound, the lysosomal selectivity [3] was “highly selective to lysosomes”, the “colocalization factor with LysoTracker” value ([3]; 10 μM Compound 4 and 50 nM LysoTracker, 1 hour) was “about 0.95” and the “pH range in which ATP was detected” value ([4]; 10 μM, PBS pH 4.0 to 8.0, ATP 0.0-1.0 mM, acidic conditions of lysosomes) was 4.8-5.8 pH. The “change of fluorescence intensity near 550 nm as ATP concentration increased” value ([4]; 10 μM, pH 5.5 PBS (0.1% acetonitrile), ATP 0.0-1.0 mM) was “greatly increased”, the “ATP detection at near-neutral pH” value ([4]; pH 7.0-7.5, 10 μM, ATP 0.0-1.0 mM) was “not detected” and the “selectivity in ATP detection among various cations and anions” value [5] was “highly selective to ATP”. For the same compound, the “cytotoxicity, cells died” value (HeLa cells; 100 μM, within 8 hours) was “about 20%” and the “cytotoxicity, cells died” value (HeLa cells; up to 10 μM, within 24 hours) was “about 8%”.
